Holding throughout (type): cell-based, human
Assay [1] concerns MDA-MB-231. The following applies: 1 mM, MDA-MB-231, four days. The procedure:
(§1) Cell proliferation, soft-agar growth and Apo-BrdU labeling studies. Proliferating fibroblasts and human tumor cells were counted by phase-contrast microscopy for viable cells (using tyrpan blue exclusion). Colony formation assays in six-well dishes and quantification of colonies by iodonitrotetrazolium violet have been previously described (Turkson, J. et al. (1999)). Treatment of cells with inhibitors was initiated 1 day after seeding cells by adding 75 μl of medium with or without inhibitor, and repeated every two to three days. Apoptosis was measured by Apo-BrdU labeling and following the supplier's (PharMingen; San Diego, Calif.) instructions.
(§2) Stat3 has an essential role in cell proliferation, and constitutively-active Stat3 is required for growth of transformed and tumor cells that harbor aberrant Stat3 signaling. Studies were performed to determine the effects of the peptidomimetic-mediated inhibition of Stat3 on cell proliferation using trypan blue exclusion for viable cell counts.

Assay [2] deals with MDA-MB-453. The following applies: 1 mM. On the procedure: as §1, §2
For assay [3], the system named is MDA-MB-435. The following applies: 1 mM, MDA-MB-435, four days. The procedure: as §1, §2

Regarding `CC(C)CC(NC(=O)C(Cc1ccc(OP(=O)(O)O)cc1)NC(=O)c1ccc(C#N)cc1)C(=O)O` (stereo not drawn) [ISS 610], the cell proliferation result is on record as “significantly suppresses proliferation” in assay [1], “no effect on cell proliferation” in assay [2] and “significantly suppresses proliferation” in assay [3].
